Reference: patent US11795460B2, “Compositions and methods for TTR gene editing and treating ATTR amyloidosis” (Intellia Therapeutics, Inc., priority 2017, dated 2023)

Tests used:
TTR [1] = experiment: TTR editing in HepG2 cells transfected with Spy Cas9 mRNA and dgRNAs (Table 6); format: cell-based, human; settings: HepG2 cells co-transfected with Spy Cas9 mRNA (SEQ ID NO:2) and dgRNAs
How it was run: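 Percent editing is the share of sequencing reads at the TTR target locus that carry insertions, deletions or substitutions, measured by Illumina amplicon sequencing aligned to hg38. Samples came from HepG2 cells lipofected first with 100 ng Cas9 mRNA and then with dual-guide RNA (25 nM crRNA/tracer), collected 24–72 h later.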

TTR [2] = experiment: TTR editing in primary human hepatocytes electroporated with Spy Cas9 protein loaded with dgRNAs (Table 7); format: cell-based; settings: dgRNA electroporated with Spy Cas9 protein (RNP)
How it was run: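 Editing efficiency is the fraction of NGS reads carrying insertions, deletions or substitutions at the TTR target, measured on MiSeq amplicons from DNA harvested 24, 48 or 72 h post-delivery. Cas9–dgRNA ribonucleoprotein was nucleofected (P3 buffer, EX-147) into primary human or cyno hepatocytes.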

TTR [3] = experiment: TTR editing in primary human hepatocytes transfected with Spy Cas9 protein (RNP) loaded with dgRNAs (Table 8); format: cell-based; settings: dgRNA transfected with Spy Cas9 protein (RNP)
How it was run: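 Primary human hepatocytes were lipofected (RNAiMAX) with RNP of Spy Cas9 (10 nM) plus pre-annealed crRNA (10 nM) and trRNA (10 nM) and harvested 24, 48 or 72 h later. Target-site amplicons were sequenced on Illumina MiSeq and aligned to hg38; percent editing = reads with indels or substitutions over total reads.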

TTR [4] = experiment: TTR editing in primary human hepatocytes transfected with Spy Cas9 mRNA and dgRNAs (Table 9); format: cell-based; settings: dgRNA co-transfected with Spy Cas9 mRNA (SEQ ID NO:2)
How it was run: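 PHH sequentially lipofected with Spy Cas9 mRNA (100 ng), then crRNA plus tracrRNA (25 nM each) dual-guide lipoplex. Cells harvested 24, 48 or 72 h post-transfection; TTR target amplicons sequenced on Illumina MiSeq, editing given as percent reads with indels or substitutions over total reads.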

TTR [5] = experiment: TTR editing in primary cyno hepatocytes electroporated with Spy Cas9 protein and dgRNAs (Tables 10, 11); format: cell-based, cynomolgus monkey
Protocol: Primary liver hepatocytes. Primary human liver hepatocytes (PHH) and primary cynomolgus liver hepatocytes (PCH) (Gibco) were cultured per the manufacturer's protocol (Invitrogen, protocol 11.28.2012). In brief, the cells were thawed and resuspended in hepatocyte thawing medium with supplements (Gibco, Cat. CM7000) followed by centrifugation at 100 g for 10 minutes for human and 80 g for 4 minutes for cyno. The supernatant was discarded and the pelleted cells resuspended in hepatocyte plating medium plus supplement pack (Invitrogen, Cat. A1217601 and CM3000). Cells were counted and plated on Bio-coat collagen I coated 96-well plates (ThermoFisher, Cat. 877272) at a density of 33,000 cells/well for human or 60,000 cells/well for cyno (or 65,000 cells/well when assaying effects on TTR protein, described further below). Plated cells were allowed to settle and adhere for 6 or 24 hours in a tissue culture incubator at 37° C. and 5% CO2 atmosphere. After incubation cells were checked for monolayer formation and media was replaced with hepatocyte culture medium with serum-free supplement pack (Invitrogen, Cat. A1217601 and CM4000).
[…] formation was performed prior to electroporation or transfection of Spy Cas9 protein loaded with guide RNAs (RNPs) onto cells. For dual guide (dgRNAs), individual crRNA and trRNA was pre-annealed by mixing equivalent amounts of reagent and incubating at 95° C. for 2 min and cooling to room temperature. Single guide (sgRNAs) were boiled at 95° C. for 2 min and cooling to room temperature. The boiled dgRNA or sgRNA was incubated with Spy Cas9 protein in Optimem for 10 minutes at room temperature to form a ribonucleoprotein (RNP) complex.
For RNP electroporation into primary human and cyno hepatocytes, the cells are thawed and resuspended in Lonza electroporation Primary Cell P3 buffer at a concentration of 2500 cells per μL for human hepatocytes and 3500 cells per μL for cyno hepatocytes. A volume of 20 μL of resuspended cells and 5 μL of RNP are mixed together per guide. 20 μL of the mixture is placed into a Lonza electroporation plate. The cells were electroporated using the Lonza nucleofector with the preset protocol EX-147. Post electroporation, the cells are transferred into a Biocoat plate containing pre-warmed maintenance media and placed in a tissue culture incubator at 37° C. and 5% CO2.
Transfected cells were harvested post-transfection at 24, 48, or 72 hours. The genomic DNA was extracted from each well of a 96-well plate using 50 μL/well BuccalAmp DNA Extraction solution (Epicentre, Cat. QE09050) per manufacturer's protocol. All DNA samples were subjected to PCR and subsequent NGS analyses, as described herein.
To quantitatively determine the efficiency of editing at the target location in the genome, sequencing was utilized to identify the presence of insertions and deletions introduced by gene editing.
Primers were designed around the target site within the gene of interest (e.g. TTR), and the genomic area of interest was amplified.
Additional PCR was performed per the manufacturer's protocols (Illumina) to add chemistry for sequencing. The amplicons were sequenced on an Illumina MiSeq instrument. The reads were aligned to a reference genome (e.g., the human reference genome (hg38), the cynomologus reference genome (mf5), the rat reference genome (rn6), or the mouse reference genome (mm10)) after eliminating those having low quality scores. The resulting files containing the reads were mapped to the reference genome (BAM files), where reads that overlapped the target region of interest were selected and the number of wild type reads versus the number of reads which contain an insertion, substitution, or deletion was calculated.
The editing percentage (e.g., the “editing efficiency” or “percent editing” or “indel frequency”) is defined as the total number of sequence reads with insertions/deletions (“indels”) or substitutions over the total number of sequence reads, including wild type. […]

off-target genomic sites = experiment: Off-target oligo insertion based assay in HEK293_Cas9 cells, dgRNAs and sgRNAs (Tables 23, 24); format: cell-based, human; settings: Table 23; TTR dgRNAs in HekCas9 cells, oligo insertion based assay
Protocol: An oligo insertion based assay (See, e.g., Tsai et al., Nature Biotechnology 33, 187-197; 2015) was used to determine potential off-target genomic sites cleaved by Cas9 targeting TTR. Forty-five dgRNAs from Table 1 (and two control guides with known off-target profiles) were screened in the HEK293 Cas9 cells. The human embryonic kidney adenocarcinoma cell line HEK293 constitutively expressing Spy Cas9 (“HEK293_Cas9”) was cultured in DMEM media supplemented with 10% fetal bovine serum and 500 μg/ml G418. Cells were plated at a density of 30,000 cells/well in a 96-well plate 24 hours prior to transfection. Cells were transfected with Lipofectamine RNAiMAX (ThermoFisher, Cat. 13778150) per the manufacturer's protocol. Cells were transfected with a lipoplex containing individual crRNA (15 nM), trRNA (15 nM), and donor oligo with (10 nM) Lipofectamine RNAiMAX (0.3 μL/well) and OptiMem. Cells were lysed 24 hours post transfection and genomic DNA was extracting using Zymo's Quick gDNA 96 Extraction kit (catalog #D3012) following the manufacturer's recommended protocol. The gDNA was quantified using the Qubit High Sensitivity dsDNA kit (Life Technologies). Libraries were prepared per the previously described method in Tsai et al, 2015 with minor modifications. Sequencing was performed on Illumina's MiSeq and HiSeq 2500. The assay identified potential off-target sites for some of the crRNAs which are plotted in FIG. 2.
Additionally, a subset of the guides was assessed for off-target potential as modified sgRNAs in the Hek_Cas9 cells via the oligo based insertion method described above. The off-target results were plotted in FIG. 4.

[6] = Table 10, primary cyno hepatocytes electroporated with Spy Cas9 protein (RNP) and dgRNAs
[7] = primary cyno hepatocytes electroporated with Spy Cas9 protein (RNP) and cyno specific dgRNAs

Row | Sequence | Avg % Deletion (TTR [1]) | Avg % Edit (TTR [1]) | Avg % Insert (TTR [1]) | Avg % Deletion (TTR [2]) | Avg % Edit (TTR [2]) | Avg % Insert (TTR [2]) | Avg % Deletion (TTR [3]) | Avg % Edit (TTR [3]) | Avg % Insert (TTR [3]) | Avg % Deletion (TTR [4]) | Avg % Edit (TTR [4]) | Avg % Insert (TTR [4]) | Avg % Deletion (TTR [5]; [6]) | Avg % Edit (TTR [5]; [6]) | Avg % Insert (TTR [5]; [6]) | Avg % Deletion (TTR [5]; [7]) | Avg % Edit (TTR [5]; [7]) | Avg % Insert (TTR [5]; [7]) | # Sites (off-target integration sites detected) (off-target genomic sites)
1 | AGCCGUGGUGGAAUAGGAGU (tested as dual guide RNA, chemistry not given here) [CR005299] | 2.30% | 38.61% | 36.32% | 0.35% | 8.65% | 8.30% | 0.58% | 19.37% | 18.79% | 0.60% | 9.43% | 8.93% | 0.26% | 13.48% | 13.23% |  |  |  | 
2 | CCUCCUCUGCCUCGCUGGAC (tested as dual guide RNA, chemistry not given here) [CR005368] |  |  |  |  |  |  |  |  |  |  |  |  |  |  |  | 27.27% | 27.60% | 0.33% | 
3 | GGCCGUGCAUGUGUUCAGAA (tested as dual guide RNA, chemistry not given here) [CR005304] | 54.75% | 62.82% | 8.07% | 61.63% | 67.00% | 5.53% | 45.13% | 49.45% | 4.32% | 44.47% | 45.27% | 0.83% |  |  |  |  |  |  | 0
4 | UAUAGGAAAACCAGUGAGUC (tested as dual guide RNA, chemistry not given here) [CR005305] | 1.21% | 13.51% | 12.30% | 0.40% | 3.83% | 3.53% | 0.34% | 7.07% | 6.73% | 1.60% | 7.53% | 5.93% | 0.15% | 11.28% | 11.13% |  |  |  | 
5 | UCACAGAAACACUCACCGUA (tested as dual guide RNA, chemistry not given here) [CR005300] | 11.15% | 64.34% | 53.20% | 4.10% | 57.47% | 53.47% | 3.61% | 57.23% | 53.62% | 3.97% | 31.53% | 27.60% |  |  |  |  |  |  | 0
6 | UCCACUCAUUCUUGGCAGGA (tested as dual guide RNA, chemistry not given here) [CR005298] | 21.36% | 42.65% | 21.29% | 17.57% | 39.90% | 22.37% | 10.95% | 32.07% | 21.12% | 11.60% | 15.70% | 4.13% |  |  |  |  |  |  | 0
7 | UGUCUGUCUUCUCUCAUAGG (tested as dual guide RNA, chemistry not given here) [CR005307] | 14.33% | 22.03% | 7.70% | 3.00% | 8.17% | 5.20% | 8.55% | 18.73% | 10.18% | 9.30% | 12.90% | 3.67% | 2.55% | 4.56% | 2.01% |  |  |  | 
